In patent US11883503B2, “Methods and compositions for cancer treatment” (DINGFU BIOTARGET CO., LTD., priority 2017, dated 2024):

System: peripheral blood lymphocytes
Assay: Flow cytometry of CD4+ and CD8+ lymphocytes in peripheral blood after FTY720
Assay type: in vivo, mice
Details: 3 days after first administration of FTY720
Description: FTY720 (SIGMA, Cat #SML0700-5MG) was used to test activation of T cells in the tumor microenvironment. FTY720 is a lipophilic immunomodulatory sphingosine-1-phosphate analog, it induces severe peripheral blood lymphopenia and sustains lymphopenia in mice by preventing lymphocytes to egress from lymph organs through agonist-induced receptor internalization.
B16-EGFR-SIY cells were inoculated s.c. into the both flanks of mice. […] Then 3 days later, after the first administration of depletion antibodies or FTY720, lymphocytes suspensions were prepared from their peripheral blood, and labeled with APC-anti-mCD4 (clone GK1.5, BioLegend), FITC-anti-mCD8a (clone 53-6.7, BioLegend), FITC-anti-mCD3 (clone 17A2, BioLegend), or APC-anti-mNK1.1 (clone PK136, BioLegend). Tumor volumes on the both flanks were measured and monitored. Samples were analyzed on a Life Attune Flow Cytometer (Life), and data were analyzed. Representative data is shown in FIG. 6C-6F, based on results obtained from three experiments conducted with 5-6 mice per group.

CCCCCCCCc1ccc(CCC(N)(CO)CO)cc1 [FTY720]
relative number of CD4+ T cells in peripheral blood: ~1.5% | relative number of CD8+ T cells in peripheral blood: about 0.5%
